Data published in US20230277553A1, “THERAPEUTIC COMPOSITION OF CURE-PRO COMPOUNDS FOR TARGETED DEGRADATION OF BET DOMAIN PROTEINS, AND METHODS OF MAKING AND USAGE” (CORNELL UNIVERSITY, priority 2020, published 2023).
Entries after “also recorded” stand apart in the source; their conditions may differ.

Columns and labels:
[1] = biological target: T1, BRD4 (Homo sapiens, UniProt O60885); assay: Summary of BRD4 degradation by CURE-PRO pairs, estimated from Western Blot or WES (Proteinsimple); type: cell-based; set-up: endogenous in cells; conditions: for Degradation of BRD4 in combination with CRBN ligand [drawing 372] / Degradation of BRD4 in combination with CRBN ligand [drawing 371] / Degradation of BRD4 in combination with CRBN ligand [drawing 370]: Table 1; for Degradation of BRD4 in combination with CRBN ligand [drawing 372]: third drawing (8066); for Degradation of BRD4 in combination with CRBN ligand [drawing 371]: second drawing (8047); for Degradation of BRD4 in combination with CRBN ligand [drawing 370]: aromatic 1,2-diol- or hindered cis-1,2-diol-containing CRBN ligand, first drawing (8046); for Degradation of BRD4 in combination with VHL ligand [drawing 397]: second drawing (8305)
Excerpt: A black check mark indicates efficacy of 30% to 70% or higher protein degradation.

[2] = biological target: T1, BRD4; assay: CURE-PRO-mediated BRD4 degradation, Western blot, HeLa cells; type: cell-based; set-up: endogenous in cells; host or cells: HeLa; conditions: 24 h; for BRD4 degradation, co-treatment with CRBN ligand 8047: 1:1 with 8047, 10 μM each; for BRD4 degradation, co-treatment with CRBN ligand 8066: 1:1 with 8066, 10 μM each (BRD-E10: 10 and 100 μM)
Method: All cell lines were purchased from ATCC or DSMZ and grown at 37° C. with 5% CO2. Human HeLa cells were cultured in complete growth medium (Dulbecco's modified Eagle's medium (DMEM) supplemented with 10% FBS); MCF7 cells were cultured in complete growth medium (Dulbecco's modified Eagle's medium (DMEM) supplemented with 10% FBS and 0.01 mg/ml human recombinant insulin (Sigma Aldrich); Namalwa and MOLM-13 cells were cultured in complete growth medium (RPMI 1640 medium supplemented with 10% FBS); MV-4-11 were cultured in complete growth medium (Iscove's Modified Dulbecco's medium, supplemented with 10% FBS); HCT116 cells were cultured in complete growth medium (McCoy's 5a Medium supplemented with 10% FBS). For cellular degradation of BRD4 studies, cells were seeded in a 12-well plate at 70-80% confluency, allowed to attach overnight, and incubated with the indicated compounds for the indicated time. When indicated, a 15-minute pretreatment with 10 μM pomalidomide, 10 μM VHL298, 10 μM Nutlin3a, 1 μM MG-132 or 1 μM Carfilzomib was performed before the addition of CURE-PROs. For washout studies, after CURE-PRO treatment, media was aspirated and incubated with complete medium for the indicated time before lysis.
Anti-BRD4 (13440, 1:1,000 dilution for Western Blot and 1:25 dilution for ProteinSimple); Anti-BRD2 (5848 1:1,000 dilution for Western Blot and 1:25 dilution for ProteinSimple); β-Actin (3700, 1:2,000 dilution for Western Blot), β-Actin (4970, 1:50 dilution for ProteinSimple) anti-mouse IgG-HRP, and anti-rabbit IgG-HRP antibodies were purchased Cell Signaling Technology. Anti-GAPDH (600-401-A33, 1:100 dilution for ProteinSimple) was purchased from Rockland Immunochemicals, Inc. Anti-BRD3 (sc-81202, 1:200 dilution for Western Blot) was purchased from Santa Cruz Biotechnology.
HeLa, MCF7, or HCT116 cells (2.5-3×10^6) were treated for 24 hours with the indicated compounds solubilized in DMSO. The cells were washed in ice-cold PBS and were then lysed in RIPA lysis buffer (150 mM NaCl, 5 mM EDTA, 1% NP-40, 0.5% sodium deoxycholate, 0.1% SDS, 50 mM Tris, pH 8.0.) with Roche protease inhibitor complete cocktail and phosphatase inhibitors (10 mM sodium fluoride, 10 mM sodium pyrophosphate, 1 mM sodium orthovanadate and 20 mM β-glycerophosphate). The total protein concentrations were determined by Bradford Protein Assay and 10-20 μg of protein was loaded onto 4-15% Tris-Glycine gradient gels (Biorad). After standard gel electrophoresis, the separated proteins were transferred to PVDF membrane by wet transfer. The immunoblots were then blocked for 1 hour in 5% skim milk in TBST or 5% BSA in TBST, according to manufacturer's instructions, before an overnight incubation at 4° C. with indicated antibodies and membranes. Membranes were then incubated with the appropriate horseradish peroxidase-conjugated secondary antibodies (1:5,000 dilution) for 1 h at room temperature and the bands were visualized using the Clarity Max Western ECL Substrate (Biorad) and the ChemiDoc Imaging System (Biorad). Signal was detected with ECL Western Blotting Substrate (Pierce) and X-ray film processed with a Konica SRX-101 X-ray film processor or captured by Bio-Rad's Chemidoc Imaging system.
HeLa cells (2.5×106) were treated for 24 hours with the sample compounds solubilized in DMSO. Compounds were added at 1-10 μM each. Standardized protein samples were electrophoresed and imaged as described in the immunoblotting description above. FIGS. 6-18 depicts the CURE-PRO-mediated BRD4 degradation for BRD monomers (JQ1 derivatives comprising of catechol linkers), and CRBN ligands, 8048 and 8049 (pomalidomide derivatives comprising boronic acid linkers) combined in a 1:1 ratio.
HeLa cells (2.5×106) were treated for 24 hours with the compounds solubilized in DMSO. The compounds were added at 10 μM each. Standardized protein samples were electrophoresed and imaged as described in the immunoblotting section above. […]

[3] = Table 3, aromatic 1,2-diol-containing VHL ligand

Compound: COc1ccc2c(c1)C(c1ccc(Cl)cc1)=N[C@@H](CC(=O)NCCCCCNC(=O)c1ccc(B(O)O)cc1)c1nnc(C)n1-2 [BRD- E07]
- Degradation of BRD4 in combination with CRBN ligand [drawing 372] [1]: ✓ (A black check mark indicates efficacy of 30% to 70% or higher protein degradation)

Compound: COc1ccc2c(c1)C(c1ccc(Cl)cc1)=N[C@@H](CC(=O)NCCNC(=O)Cc1cccc(B(O)O)c1)c1nnc(C)n1-2 [BRD- E38]
- Degradation of BRD4 in combination with CRBN ligand [drawing 371] [1]: ✓ (A black check mark indicates efficacy of 30% to 70% or higher protein degradation)

Compound: CCNC(=O)C[C@@H]1N=C(c2ccc(Cl)cc2)c2cc(OCCOCCNC(=O)c3ccc(B(O)O)cc3)ccc2-n2c(C)nnc21 [BRD- E39]
- Degradation of BRD4 in combination with CRBN ligand [drawing 370] [1]: ✓ (A black check mark indicates efficacy of 30% to 70% or higher protein degradation)

Compound: CCNC(=O)C[C@@H]1N=C(c2ccc(Cl)cc2)c2cc(OCCOCCOCCNC(=O)c3ccc(O)c(O)c3)ccc2-n2c(C)nnc21 [BRD- N40]
- Degradation of BRD4 in combination with aryl-boronic acid-containing VHL ligand ([1]; Table 6, head shows drawings [drawing 429] and [drawing 430]): ✓ (A black check mark indicates efficacy of 30% to 70% or higher protein degradation)

Compound: COc1ccc2c(c1)C(c1ccc(Cl)cc1)=N[C@@H](CC(=O)NCCNC(=O)c1cccc(B(O)O)c1)c1nnc(C)n1-2 [BRD-E2]
- Degradation of BRD4 in combination with VHL ligand [drawing 397] [1, 3]: ✓ (A black check mark indicates efficacy of 30% to 70% or higher protein degradation)

Compound: COc1ccc2c(c1)C(c1ccc(Cl)cc1)=N[C@@H](CC(=O)NCCCNC(=O)c1cccc(B(O)O)c1)c1nnc(C)n1-2 [BRD-E4]
- Degradation of BRD4 in combination with CRBN ligand [drawing 371] [1]: ✓ (A black check mark indicates efficacy of 30% to 70% or higher protein degradation)
- Degradation of BRD4 in combination with CRBN ligand [drawing 372] [1]: ✓ (A black check mark indicates efficacy of 30% to 70% or higher protein degradation)
- Degradation of BRD4 in combination with CRBN ligand [drawing 370] [1]: ✓ (A black check mark indicates efficacy of 30% to 70% or higher protein degradation)
- BRD4 degradation, co-treatment with CRBN ligand 8046 ([2]; 1:1 with 8046, 10 μM each, Western blot): causes degradation of BRD4; also recorded: Degradation is noted
- BRD4 degradation, co-treatment with CRBN ligand 8047 ([2]; Western blot): causes degradation of BRD4; also recorded: Degradation is noted
- BRD4 degradation, co-treatment with CRBN ligand 8066 ([2]; Western blot): causes degradation of BRD4; also recorded: Degradation is noted

Compound: COc1ccc2c(c1)C(c1ccc(Cl)cc1)=N[C@@H](CC(=O)NCCCCNC(=O)c1ccc(B(O)O)cc1)c1nnc(C)n1-2 [BRD-E5]
- Degradation of BRD4 in combination with CRBN ligand [drawing 371] [1]: ✓ (A black check mark indicates efficacy of 30% to 70% or higher protein degradation)
- Degradation of BRD4 in combination with CRBN ligand [drawing 372] [1]: ✓ (A black check mark indicates efficacy of 30% to 70% or higher protein degradation)
- BRD4 degradation, co-treatment with CRBN ligand 8047 ([2]; Western blot): causes degradation of BRD4; also recorded: Degradation is noted
- BRD4 degradation, co-treatment with CRBN ligand 8066 ([2]; Western blot): causes degradation of BRD4; also recorded: Degradation is noted

Compound: COc1ccc2c(c1)C(c1ccc(Cl)cc1)=N[C@@H](CC(=O)NCc1ccc(B(O)O)cc1)c1nnc(C)n1-2 [BRD-E09, (4-((2-((4S)-6-(4-chlorophenyl)-8-methoxy-1-methyl-4H-benzo[f][1,2,4]triazolo[4,3-a][1,4]diazepin-4-yl)acetamido)methyl)phenyl)boronic acid]
- Degradation of BRD4 in combination with VHL ligand [drawing 397] [1, 3]: ✓ (A black check mark indicates efficacy of 30% to 70% or higher protein degradation)

Compound: COc1ccc2c(c1)C(c1ccc(Cl)cc1)=N[C@@H](CC(=O)NCc1cccc(B(O)O)c1)c1nnc(C)n1-2 [BRD-E10]
- Degradation of BRD4 in combination with CRBN ligand [drawing 371] [1]: ✓ (A black check mark indicates efficacy of 30% to 70% or higher protein degradation)
- Degradation of BRD4 in combination with CRBN ligand [drawing 370] [1]: ✓ (A black check mark indicates efficacy of 30% to 70% or higher protein degradation)
- Degradation of BRD4 in combination with VHL ligand [drawing 396] ([1]; Table 3, aromatic 1,2-diol-containing VHL ligand, first drawing (by text: 8304)): ✓ (A black check mark indicates efficacy of 30% to 70% or higher protein degradation)
- Concentration at which BRD4 degradation is observed, co-dosed with 8046 ([2]; 1:1 with 8046): 100 µM
- Concentration at which complete BRD4 degradation is demonstrated, with 8047 ([2]; 1:1 with 8047, tested 10 and 100 μM): 10 µM

Compound: COc1ccc2c(c1)C(c1ccc(Cl)cc1)=N[C@@H](CC(=O)NCCNC(=O)Cc1ccc(B(O)O)cc1)c1nnc(C)n1-2 [BRD-E27, (4-(2-((2-(2-((4S)-6-(4-chlorophenyl)-8-methoxy-1-methyl-4H-benzo[f][1,2,4]triazolo[4,3-a][1,4]diazepin-4-yl)acetamido)ethyl)amino)-2-oxoethyl)phenyl)boronic acid]
- Degradation of BRD4 in combination with CRBN ligand [drawing 371] [1]: ✓ (A black check mark indicates efficacy of 30% to 70% or higher protein degradation)
- BRD4 degradation, co-treatment with CRBN ligand 8047 ([2]; Western blot): causes degradation of BRD4

Compound: COc1ccc2c(c1)C(c1ccc(Cl)cc1)=N[C@@H](CC(=O)NCCNC(=O)/C=C/c1cccc(B(O)O)c1)c1nnc(C)n1-2 [BRD-E30, (3-((E)-3-((2-(2-((4S)-6-(4-chlorophenyl)-8-methoxy-1-methyl-4H-benzo[f][1,2,4]triazolo[4,3-a][1,4]diazepin-4-yl)acetamido)ethyl)amino)-3-oxoprop-1-en-1-yl)phenyl)boronic acid]
- Degradation of BRD4 in combination with CRBN ligand [drawing 371] [1]: ✓ (A black check mark indicates efficacy of 30% to 70% or higher protein degradation)
- Degradation of BRD4 in combination with CRBN ligand [drawing 372] [1]: ✓ (A black check mark indicates efficacy of 30% to 70% or higher protein degradation)
- BRD4 degradation, BRD ligand alone ([2]; BRD monomer alone, Western blot): no change in expression

Compound: CCNC(=O)C[C@@H]1N=C(c2ccc(Cl)cc2)c2cc(OCCOCCOCCNC(=O)c3cccc(B(O)O)c3)ccc2-n2c(C)nnc21 [BRD-E42]
- Degradation of BRD4 in combination with CRBN ligand [drawing 371] [1]: ✓ (A black check mark indicates efficacy of 30% to 70% or higher protein degradation)
- BRD4 degradation, co-treatment with CRBN ligand 8047 ([2]; Western blot): causes degradation of BRD4

Compound: CCNC(=O)C[C@@H]1N=C(c2ccc(SCc3ccc(B(O)O)cc3)cc2)c2cc(OC)ccc2-n2c(C)nnc21 [BRD-E54]
- Degradation of BRD4 in combination with VHL ligand [drawing 397] [1, 3]: ✓ (A black check mark indicates efficacy of 30% to 70% or higher protein degradation)

Compound: COc1ccc2c(c1)C(c1ccc(Cl)cc1)=N[C@@H](CC(=O)Nc1ccc(O)c(O)c1)c1nnc(C)n1-2 [BRD-N68]
- Degradation of BRD4 in combination with CRBN ligand [drawing 407] ([1]; Table 4, aryl-boronic acid-containing CRBN ligand, first drawing (by text: 8048)): ✓ (A black check mark indicates efficacy of 30% to 70% or higher protein degradation)
